{
  "source": "patent US20230117034A1",
  "about": "“PYRAZOLOTRIAZINES” (Bayer Aktiengesellschaft, priority 2019, published 2023)",
  "data": [
    {"target": "CDK12/CycK (Homo sapiens, UniProt Q9NYV4)", "sequence (Q9NYV4 with tags, fused parts or gaps)": "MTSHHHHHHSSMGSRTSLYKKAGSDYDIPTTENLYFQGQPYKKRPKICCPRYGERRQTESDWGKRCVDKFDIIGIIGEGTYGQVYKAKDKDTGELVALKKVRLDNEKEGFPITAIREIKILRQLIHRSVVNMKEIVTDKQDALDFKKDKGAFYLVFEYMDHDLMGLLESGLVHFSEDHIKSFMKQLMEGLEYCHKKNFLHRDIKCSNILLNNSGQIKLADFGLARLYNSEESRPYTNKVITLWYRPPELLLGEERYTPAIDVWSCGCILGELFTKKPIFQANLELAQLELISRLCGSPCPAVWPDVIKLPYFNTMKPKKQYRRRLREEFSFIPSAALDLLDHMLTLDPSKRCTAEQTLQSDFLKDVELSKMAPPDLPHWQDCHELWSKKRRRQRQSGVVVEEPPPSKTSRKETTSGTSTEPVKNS", "sequence (O75909 1-300 partner limits assumed)": "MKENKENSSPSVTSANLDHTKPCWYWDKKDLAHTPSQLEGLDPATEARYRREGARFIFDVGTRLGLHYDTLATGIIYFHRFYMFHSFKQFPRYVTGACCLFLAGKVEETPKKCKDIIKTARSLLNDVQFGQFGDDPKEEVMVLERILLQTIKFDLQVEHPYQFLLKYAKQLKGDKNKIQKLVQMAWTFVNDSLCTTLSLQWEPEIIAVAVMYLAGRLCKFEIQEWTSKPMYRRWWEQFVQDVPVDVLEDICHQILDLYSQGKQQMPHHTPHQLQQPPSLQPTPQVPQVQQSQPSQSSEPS", "assay": "CDK12/CycK high ATP kinase assay (TR-FRET, 2 mM ATP)", "assay_type": "biochemical", "conditions": "2 mM ATP (high ATP); median; read-out: CDK12/CyclinK, 2 mM ATP (high ATP), IC50-[mol/l] (median)", "method_in_brief": "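Read-out is TR-FRET (Eu-anti-rabbit IgG, anti-phospho-c-Myc Ser62 antibody, streptavidin-XL665) after EDTA stop. Reaction ran 60 min at 22 °C using 1 µM biotin-peptide and high ATP (2 mM) with roughly 0.75 nM recombinant CDK12/CycK, after 15 min compound pre-binding; normalised emission ratios yield IC50.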", "units": {"IC50": "µM"}, "values": [
      {"compound": "Fc1ccc(-c2nnc(CNc3nc(N4CCOCC4)nc4c(Br)cnn34)[nH]2)c(F)c1", "note": "[Example 41, 8-bromo-N-{[5-(2,4-difluorophenyl)-4H-1,2,4-triazol-3-yl]methyl}-2-(morpholin-4-yl)pyrazolo[1,5-a][1,3,5]triazin-4-amine]", "IC50": "> 5.71"},
      {"compound": "CCNc1nc(NCc2ncc(-c3ccccc3)[nH]2)n2ncc(C(C)C)c2n1", "note": "[Example 34, N^2-ethyl-N^4-[(5-phenyl-1H-imidazol-2-yl)methyl]-8-(propan-2-yl)pyrazolo[1,5-a][1,3,5]triazine-2,4-diamine]", "IC50": "> 5.71"},
      {"compound": "Brc1cnn2c(NCc3nc4ccccc4[nH]3)nc(OC3CCCCC3)nc12", "note": "[Example 406, N-[(1H-benzimidazol-2-yl)methyl]-8-bromo-2-(cyclohexyloxy)pyrazolo[1,5-a][1,3,5]triazin-4-amine]", "IC50": "> 20"},
      {"compound": "CN(CC(C)(C)O)c1nc(NCc2nc3c(F)c(F)ccc3[nH]2)n2ncc(C(F)(F)F)c2n1", "note": "[Example 402, 1-{[4-{[(4,5-difluoro-1H-benzimidazol-2-yl)methyl]amino}-8-(trifluoromethyl)pyrazolo[1,5-a][1,3,5]triazin-2-yl](methyl)amino}-2-methylpropan-2-ol]", "IC50": 0.224},
      {"compound": "COc1cccc2nc(CNc3nc(N4CCOCC4)nc4c(-c5ccnnc5)cnn34)[nH]c12.O=C(O)C(F)(F)F", "note": "[Example 439, trifluoroacetic acid N-[(7-methoxy-1H-benzimidazol-2-yl)methyl]-2-(morpholin-4-yl)-8-(pyridazin-4-yl)pyrazolo[1,5-a][1,3,5]triazin-4-amine]", "IC50": 3.95},
      {"compound": "FC(F)(F)c1cnn2c(NCc3nnc(-c4ccccc4)[nH]3)nc(N3CCOCC3)nc12", "note": "[Example 427, 2-(morpholin-4-yl)-N-[(5-phenyl-4H-1,2,4-triazol-3-yl)methyl]-8-(trifluoromethyl)pyrazolo[1,5-a][1,3,5]triazin-4-amine]", "IC50": 1.86},
      {"compound": "Fc1ccc2[nH]c(CNc3nc(N4CCOCC4)nc4c(-c5nccs5)cnn34)nc2c1F", "note": "[Example 413, N-[(4,5-difluoro-1H-benzimidazol-2-yl)methyl]-2-(morpholin-4-yl)-8-(1,3-thiazol-2-yl)pyrazolo [1,5-a][1,3,5]triazin-4-amine]", "IC50": "> 20"},
      {"compound": "Brc1cnn2c(NCc3nc4ccccc4[nH]3)nc(OC3CCNCC3)nc12", "note": "[Example 411, N-[(1H-benzimidazol-2-yl)methyl]-8-bromo-2-[(piperidin-4-yl)oxy]pyrazolo[1,5-a][1,3,5]triazin-4-amine]", "IC50": "> 20"},
      {"compound": "CC(C)COc1nc(NCc2nc3ccccc3[nH]2)n2ncc(Br)c2n1", "note": "[Example 409, N-[(1H-benzimidazol-2-yl)methyl]-8-bromo-2-(2-methylpropoxy)pyrazolo[1,5-a][1,3,5]triazin-4-amine]", "IC50": "> 15.8"},
      {"compound": "Fc1cccc(-c2nnc(CNc3nc(N4CCOCC4)nc4c(Br)cnn34)[nH]2)c1", "note": "[Example 44, 8-bromo-N-{[5-(3-fluorophenyl)-4H-1,2,4-triazol-3-yl]methyl}-2-(morpholin-4-yl)pyrazolo[1,5-a][1,3,5]triazin-4-amine]", "IC50": 1.34},
      {"compound": "O=C(O)C(F)(F)F.c1ccc2[nH]c(CNc3nc(N4CCOCC4)nc4c(-c5ccnnc5)cnn34)nc2c1", "note": "[Example 438, trifluoroacetic acid N-[(1H-benzimidazol-2-yl)methyl]-2-(morpholin-4-yl)-8-(pyridazin-4-yl)pyrazolo[1,5-a][1,3,5]triazin-4-amine]", "IC50": "> 7.86"},
      {"compound": "CN1CCN(c2nc(NCc3nc4ccccc4[nH]3)n3ncc(C4CC4(F)F)c3n2)CC1", "note": "(stereo not shown) [Example 428, N-(1H-benzimidazol-2-ylmethyl)-8-(2,2-difluorocyclopropyl)-2-(4-methylpiperazin-1-yl)pyrazolo[1,5-a][1,3,5]triazin-4-amine]", "IC50": "> 20"},
      {"compound": "Clc1cc2nc(CNc3nc(N4CCOCC4)nc4c(-c5ccnnc5)cnn34)[nH]c2cc1Cl.O=C(O)C(F)(F)F", "note": "[Example 440, trifluoroacetic acid N-[(5,6-dichloro-1H-benzimidazol-2-yl)methyl]-2-(morpholin-4-yl)-8-(pyridazin-4-yl)pyrazolo[1,5-a][1,3,5]triazin-4-amine]", "IC50": "> 20"},
      {"compound": "CN1CCN(c2nc(NCc3nc4c(F)c(F)ccc4[nH]3)n3ncc(C4CC4(F)F)c3n2)CC1", "note": "(stereo not shown) [Example 429, N-[(4,5-difluoro-1H-benzimidazol-2-yl)methyl]-8-(2,2-difluorocyclopropyl)-2-(4-methylpiperazin-1-yl)pyrazolo[1,5-a][1,3,5]triazin-4-amine]", "IC50": "> 20"},
      {"compound": "Cc1cccc(-c2nnc(CNc3nc(N4CCOCC4)nc4c(Br)cnn34)[nH]2)c1", "note": "[Example 40, 8-bromo-N-{[5-(3-methylphenyl)-4H-1,2,4-triazol-3-yl]methyl}-2-(morpholin-4-yl)pyrazolo[1,5-a][1,3,5]triazin-4-amine]", "IC50": 2.44},
      {"compound": "CC(C)c1cnn2c(NCc3nnc(-c4ccccc4)[nH]3)nc(N3CCN(C)CC3)nc12", "note": "[Example 37, 2-(4-methylpiperazin-1-yl)-N-[(5-phenyl-4H-1,2,4-triazol-3-yl)methyl]-8-(propan-2-yl)pyrazolo[1,5-a][1,3,5]triazin-4-amine]", "IC50": "> 20"},
      {"compound": "Cc1cnn2c(NCc3nc4c(F)c(F)ccc4[nH]3)nc(N(C)CC(C)(C)O)nc12", "note": "[Example 395, 1-[(4-{[(4,5-difluoro-1H-benzimidazol-2-yl)methyl]amino}-8-methylpyrazolo[1,5-a][1,3,5]triazin-2-yl)(methyl)amino]-2-methylpropan-2-ol]", "IC50": 6.4},
      {"compound": "N#Cc1cnn2c(NCc3nc4ccccc4[nH]3)nc(N3CCOCC3)nc12", "note": "[Example 43, 4-{[(1H-benzimidazol-2-yl)methyl]amino}-2-(morpholin-4-yl)pyrazolo[1,5-a][1,3,5]triazine-8-carbonitrile]", "IC50": "> 16.8"},
      {"compound": "Fc1cccc2[nH]c(CNc3nc(N4CCN5CCC4CC5)nc4c(C(F)(F)F)cnn34)nc12", "note": "[Example 410, 2-(1,4-diazabicyclo[3.2.2]nonan-4-yl)-N-[(4-fluoro-1H-benzimidazol-2-yl)methyl]-8-(trifluoromethyl)pyrazolo[1,5-a][1,3,5]triazin-4-amine]", "IC50": 1.58},
      {"compound": "FC(F)n1cc(-c2cnn3c(NCc4nc5ccccc5[nH]4)nc(N4CCOCC4)nc23)cn1", "note": "[Example 421, N-[(1H-benzimidazol-2-yl)methyl]-8-[1-(difluoromethyl)-1H-pyrazol-4-yl]-2-(morpholin-4-yl)pyrazolo[1,5-a][1,3,5]triazin-4-amine]", "IC50": 8.58},
      {"compound": "CN1CCN(c2nc(NCc3nc4c(F)c(F)ccc4[nH]3)n3ncc(CC(F)(F)F)c3n2)CC1", "note": "[Example 437, N-[(4,5-difluoro-1H-benzimidazol-2-yl)methyl]-2-(4-methylpiperazin-1-yl)-8-(2,2,2-trifluoroethyl) pyrazolo[1,5-a][1,3,5]triazin-4-amine]", "IC50": "> 20"},
      {"compound": "CC(C)(O)COc1nc(NCc2nc3ccccc3[nH]2)n2ncc(Br)c2n1", "note": "[Example 398, 1-[(4-{[(1H-benzimidazol-2-yl)methyl]amino}-8-bromopyrazolo[1,5-a][1,3,5]triazin-2-yl)oxy]-2-methylpropan-2-ol]", "IC50": 14.6},
      {"compound": "FC(F)(F)c1cccc(-c2nnc(CNc3nc(N4CCOCC4)nc4c(Br)cnn34)[nH]2)c1", "note": "[Example 52, 8-bromo-2-(morpholin-4-yl)-N-({5-[3-(trifluoromethyl)phenyl]-4H-1,2,4-triazol-3-yl}methyl)pyrazolo[1,5-a][1,3,5]triazin-4-amine]", "IC50": 1.64},
      {"compound": "Cc1cnn2c(NCc3nc4c(F)c(F)ccc4[nH]3)nc(N3CCN(C)CC3)nc12", "note": "[Example 394, N-[(4,5-difluoro-1H-benzimidazol-2-yl)methyl]-8-methyl-2-(4-methylpiperazin-1-yl)pyrazolo[1,5-a][1,3,5]triazin-4-amine]", "IC50": "> 18.7"},
      {"compound": "COc1ccccc1-c1nnc(CNc2nc(N3CCOCC3)nc3c(Br)cnn23)[nH]1", "note": "[Example 61, 8-bromo-N-{[5-(2-methoxyphenyl)-4H-1,2,4-triazol-3-yl]methyl}-2-(morpholin-4-yl)pyrazolo[1,5-a][1,3,5]triazin-4-amine]", "IC50": "> 20"},
      {"compound": "Cc1cnn2c(NCc3nc4ccccc4[nH]3)nc(N3CC4CCC(C3)N4)nc12", "note": "[Example 401, N-[(1H-benzimidazol-2-yl)methyl]-2-(3,8-diazabicyclo[3.2.1]octan-3-yl)-8-methylpyrazolo[1,5-a][1,3,5]triazin-4-amine]", "IC50": "> 20"},
      {"compound": "Fc1ccc2[nH]c(CNc3nc(N4CCOCC4)nc4c(-c5cncs5)cnn34)nc2c1F.O=C(O)C(F)(F)F", "note": "[Example 442, trifluoroacetic acid N-[(4,5-difluoro-1H-benzimidazol-2-yl)methyl]-2-(morpholin-4-yl)-8-(1,3-thiazol-5-yl)pyrazolo[1,5-a][1,3,5]triazin-4-amine]", "IC50": 0.583},
      {"compound": "OC[C@H]1CCCCN1c1nc(NCc2nc3ccccc3[nH]2)n2ncc(Br)c2n1", "note": "[Example 60, [(2R)-1-(4-{[(1H-benzimidazol-2-yl)methyl]amino}-8-bromopyrazolo[1,5-a][1,3,5]triazin-2-yl)piperidin-2-yl]methanol]", "IC50": 1.86},
      {"compound": "Brc1cnn2c(NCc3nc4ccccc4[nH]3)nc(OCCN3CCCC3)nc12", "note": "[Example 404, N-[(1H-benzimidazol-2-yl)methyl]-8-bromo-2-[2-(pyrrolidin-1-yl)ethoxy]pyrazolo[1,5-a][1,3,5]triazin-4-amine]", "IC50": "> 20"},
      {"compound": "CCc1cnn2c(NCc3nc4c(OC)cccc4[nH]3)nc(N3CCOCC3)nc12", "note": "[Example 433, 8-ethyl-N-[(4-methoxy-1H-benzimidazol-2-yl)methyl]-2-(morpholin-4-yl)pyrazolo[1,5-a][1,3,5]triazin-4-amine]", "IC50": 2.7},
      {"compound": "CC(C)c1cnn2c(NCc3ncc(-c4ccccc4)[nH]3)nc(N(C)CC(C)(C)O)nc12", "note": "[Example 35, 2-methyl-1-{methyl[4-{[(5-phenyl-1H-imidazol-2-yl)methyl]amino}-8-(propan-2-yl)pyrazolo[1,5-a][1,3,5]triazin-2-yl]amino}propan-2-ol]", "IC50": 2.21}
    ]}
  ]
}
